The record followed here is patent US9681664B2, “Macrocyclic picolinamides as fungicides” (Dow Agrosciences LLC, priority 2012, dated 2017).

Structures are written as SMILES. Like-named read-outs stand apart in the source and are kept apart here. Bounds are passed on as bounds.

What all share (assay type): in vivo
The test system of assay [1] is Phakopsora pachyrhizi. In words: Asian soybean rust (PHAKPA) disease control. The note with it: topical, high volume. The method, boiled down:
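Compounds in acetone diluted with nine volumes water containing 0.011% Tween 20, sprayed to run-off on two-week-old Williams 82 soybean seedlings, inoculated 3 days before or 1 day after treatment. Plants held 24 h in dark dew room at 22 °C, 100% RH, then at 23 °C; disease severity scored on sprayed leaves.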

The test system of assay [2] is Erysiphe cichoracearum. In words: Powdery mildew of cucumber (ERYSCI) disease control. The note with it: Golovinomyces cichoracearum, 24 h, 1 Day Protectant, high volume, read-out: Disease Control ERYSCI 1 DP. The method, then: Technical grades of materials were dissolved in acetone, which were then mixed with nine volumes of water containing 110 ppm Triton X-100. The fungicide solutions were applied onto wheat seedlings using an automated booth sprayer to run-off. All sprayed plants were allowed to air dry prior to further handling. All fungicides were evaluated using the aforementioned method for their activity vs. all target diseases. Wheat leaf blotch and brown rust activity were also evaluated using track spray applications, in which case the fungicides were formulated as EC formulations, containing 0.1% Trycol 5941 in the spray solutions. Cucumber seedlings (variety Bush Pickle) were grown in soil-less Metro mix, with one plant per pot, and used in the test when 12 to 14 days old. Plants were inoculated with a spore suspension 24 hr following fungicide treatments. After inoculation the plants remained in the greenhouse set at 20° C. until disease was fully expressed. Fungicide formulation, application and disease assessment on the sprayed leaves followed the procedures as described in the Example A.

Assay [3] relates to Uncinula necator. The assay is described as follows: Grape powdery mildew (UNCINE) disease control. Particulars: Erysiphe necator, 24 h, High volume application, 1 Day Protectant, read-out: UNCINE 1 DP disease control. The method, then:
Technical grades of materials were dissolved in acetone, which were then mixed with nine volumes of water containing 110 ppm Triton X-100. The fungicide solutions were applied onto wheat seedlings using an automated booth sprayer to run-off. All sprayed plants were allowed to air dry prior to further handling. All fungicides were evaluated using the aforementioned method for their activity vs. all target diseases. Wheat leaf blotch and brown rust activity were also evaluated using track spray applications, in which case the fungicides were formulated as EC formulations, containing 0.1% Trycol 5941 in the spray solutions. Grape seedlings (variety Carignane) were grown in soil-less Metro mix, with one plant per pot, and used in the test when approximately one month old. Plants were inoculated 24 hr after fungicide treatment by shaking spores from infected leaves over test plants. Plants were maintained in a greenhouse set at 20° C. until disease was fully developed. Fungicide formulation, application and disease assessment on the sprayed leaves followed the procedures as described in the Example A.

Assay [4] deals with Magnaporthe grisea; Anamorph: Pyricularia oryzae. The assay is described as follows: whole plant or invertebrate. The note with it: 24 h, read-out: PYRIOR 1 DP disease control.
The subject of assay [5] is Blumeria graminis f. sp. hordei; Synonym: Erysiphe graminis f. sp. hordei. The assay is described as follows: Barley powdery mildew (ERYSGH) disease control. The note with it: 24 h, 1 Day Protectant, high volume, read-out: Disease Control ERYSGH 1 DP. On the procedure: Technical grades of materials were dissolved in acetone, which were then mixed with nine volumes of water containing 110 ppm Triton X-100. The fungicide solutions were applied onto wheat seedlings using an automated booth sprayer to run-off. All sprayed plants were allowed to air dry prior to further handling. All fungicides were evaluated using the aforementioned method for their activity vs. all target diseases. Wheat leaf blotch and brown rust activity were also evaluated using track spray applications, in which case the fungicides were formulated as EC formulations, containing 0.1% Trycol 5941 in the spray solutions. Barley seedlings (variety Harrington) were propagated in soil-less Metro mix, with each pot having 8 to 12 plants, and used in the test when first leaf was fully emerged. Test plants were inoculated by dusting with infected stock plants 24 hr after fungicide treatments. After inoculation the plants were kept in a greenhouse set at 20° C. for disease to develop. Fungicide formulation, application and disease assessment on the sprayed leaves followed the procedures as described in the Example A.

The test system of assay [6] is Mycosphaerella graminicola; Anamorph: Septoria tritici. The assay is described as follows: Leaf blotch of wheat (SEPTTR) disease control on wheat seedlings. Particulars: Zymoseptoria tritici; for pest or weed control at 121.5 g/ha: low volume application, 121.5 g/H. In short, it runs like this: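 Protective or curative format: Septoria tritici inoculation either preceded or followed fungicide application to first-leaf Yuma wheat. Severity scored 0–100%; control expressed versus untreated.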

In assay [7] the test system is Cercospora beticola. In words: Leaf spot of sugar beets (CERCBE) disease control. Particulars: 24 h, 1 Day Protectant, high volume, read-out: Disease Control CERCBE 1 DP. The method, then: Technical grades of materials were dissolved in acetone, which were then mixed with nine volumes of water containing 110 ppm Triton X-100. The fungicide solutions were applied onto wheat seedlings using an automated booth sprayer to run-off. All sprayed plants were allowed to air dry prior to further handling. All fungicides were evaluated using the aforementioned method for their activity vs. all target diseases. Wheat leaf blotch and brown rust activity were also evaluated using track spray applications, in which case the fungicides were formulated as EC formulations, containing 0.1% Trycol 5941 in the spray solutions. Sugar beet plants (variety HH88) were grown in soil-less Metro mix and trimmed regularly to maintain a uniform plant size prior to test. Plants were inoculated with a spore suspension 24 hr after fungicide treatments. Inoculated plants were kept in a dew chamber at 22° C. for 48 hr then incubated in a greenhouse set at 24° C. under a clear plastic hood with bottom ventilation until disease symptoms were fully expressed. Fungicide formulation, application and disease assessment on the sprayed leaves followed the procedures as described in the Example A.

Setting [8] is: 24 h, 1 Day Protectant, read-out: Disease Control PHAKPA 1DP.
[9] abbreviates: 72 h, 3 Day Curative, read-out: Disease Control PHAKPA 3DC.
Setting [10] is: 24 h, High volume application, 1 Day Protectant, read-out: SEPTTR 1DP disease control.
Where [11] appears, read: 72 h, High volume application, 3 Day Curative, read-out: SEPTTR 3DC disease control.
The mark [12] stands for this setting: 24 h, Wheat Leaf Blotch, 1 Day Protectant, high volume application, read-out: Disease Control SEPTTR 1 DP 100 ppm.
Setting [13] is: 24 h, Wheat Leaf Blotch, 1 Day Protectant, read-out: Disease Control SEPTTR 1 DP 121.5 g/H.
Setting [14] is: 72 h, Wheat Leaf Blotch, 3 Day Curative, high volume application, read-out: Disease Control SEPTTR 3 DC 100 ppm.
Setting [15] is: 72 h, Wheat Leaf Blotch, 3 Day Curative, read-out: Disease Control SEPTTR 3 DC 121.5 g/H.

As to `CCCO[C@H]1CCC[C@H](NC(=O)c2nccc(OC)c2OCOC(C)=O)C(=O)O[C@@H](C)[C@@H]1OC1CCCC1` [F155], the pest or weed control at 25 ppm in assay [1] (setting [8]) and in assay [1] (setting [9]) was 80 to 100% in each case. In addition, the pest or weed control at 100 ppm was 80 to 100% in assay [2]; 0 to 80% in assay [3]; 80 to 100% in assay [4]; 80 to 100% in assay [5]; 80 to 100% in assay [6] (setting [10]); 80 to 100% in assay [6] (setting [11]). In addition, the pest or weed control at 100 ppm in assay [7] was 80 to 100%.
Consider `COc1ccnc(C(=O)N[C@H]2CCC[C@H](OC3CCCC3)[C@@H](OCCCc3ccccc3)[C@H](C)OC2=O)c1OCOC(C)=O` [F165], for which the pest or weed control at 25 ppm in assay [1] (setting [8]) was 80 to 100%; in assay [1] (setting [9]), 0 to 80%. In addition, the pest or weed control at 100 ppm in assay [2] was in the range of 0 to 80%; in assay [3] it was 0 to 80%; in assay [4], 80 to 100%; in assay [5] it was 0 to 80%; in assay [6] (setting [10]), 80 to 100%; in assay [6] (setting [11]), 80 to 100%. Further, the pest or weed control at 100 ppm in assay [7] fell in the range of 80 to 100%.
As for `CCCCCO[C@H]1[C@H](C)OC(=O)[C@@H](NC(=O)c2nccc(OC)c2OCOC(C)=O)CCC[C@@H]1OC1CCCC1` [F166], the pest or weed control at 25 ppm in assay [1] (setting [8]) and in assay [1] (setting [9]) was 80 to 100% each time. The pest or weed control at 100 ppm was 80 to 100% in assay [2]; 0 to 80% in assay [3]; 80 to 100% in assay [4]; 80 to 100% in assay [5]; 80 to 100% in assay [6] (setting [10]); 80 to 100% in assay [6] (setting [11]). For the same compound, the pest or weed control at 100 ppm in assay [7] was 80 to 100%.
Turning to `COc1ccc(O[C@H]2CCC[C@H](NC(=O)c3nccc(OC)c3OCOC(C)=O)C(=O)O[C@@H](C)[C@@H]2OC2CCCC2)cc1` [F170], the pest or weed control at 25 ppm in assay [1] (setting [8]) is 80 to 100%; in assay [1] (setting [9]) it was 0 to 80%. The pest or weed control at 100 ppm in assay [2] fell in the range of 0 to 80%; in assay [3] it was 0 to 80%; in assay [4] it was 80 to 100%; in assay [5] it was 0 to 80%; in assay [6] (setting [10]), 80 to 100%; in assay [6] (setting [11]) it was 80 to 100%. In addition, the pest or weed control at 100 ppm in assay [7] lay within 80 to 100%.
`COc1ccnc(C(=O)N[C@H]2CCC[C@H](OCCCC(F)(F)F)[C@@H](OC3CCCC3)[C@H](C)OC2=O)c1OCOC(C)=O` [F172]: the pest or weed control at 25 ppm in assay [1] (setting [8]) and in assay [1] (setting [9]) was 80 to 100% throughout. In addition, the pest or weed control at 100 ppm in assay [2] lay in the range of 80 to 100%; in assay [3], 0 to 80%; in assay [4] it was 80 to 100%; in assay [5], 0 to 80%; in assay [6] (setting [10]) it was 80 to 100%; in assay [6] (setting [11]) it was 80 to 100%. In addition, in assay [7], the pest or weed control at 100 ppm lay in the range of 80 to 100%.
`CCOCC(=O)OCOc1c(OC)ccnc1C(=O)N[C@H]1CCC[C@H](Oc2ccccc2)[C@@H](OC(=O)C2CCCC2)[C@H](C)OC1=O` [F237]: the pest or weed control at 25 ppm in assay [1] (setting [8]) is 80 to 100%; in assay [1] (setting [9]), under 0%. Moreover, the pest or weed control at 100 ppm in assay [2] was under 0%; in assay [3], 0 to 80%; in assay [4] it was 80 to 100%; in assay [5], 0 to 80%; in assay [6] (setting [12]), 0 to 80%; in assay [6] (setting [14]), 0 to 80%. Also, in assay [7], the pest or weed control at 100 ppm lay within 80 to 100%. For the same compound, the pest or weed control at 121.5 g/ha was under 0% in assay [6] (setting [13]) and 0 to 80% in assay [6] (setting [15]).
In the case of `COc1ccnc(C(=O)N[C@H]2CCC[C@H](Oc3ccccc3)[C@@H](OC(=O)C3CC3)[C@H](C)OC2=O)c1OCOC(=O)C(C)C` [F241], the results for the pest or weed control at 25 ppm in assay [1] (setting [8]) and in assay [1] (setting [9]) were 80 to 100% and 0 to 80%, respectively. Further, the pest or weed control at 100 ppm in assay [2] was under 0%; in assay [3], 0 to 80%; in assay [4] it was 80 to 100%; in assay [5], 0 to 80%; in assay [6] (setting [12]) it was 80 to 100%; in assay [6] (setting [14]), 80 to 100%. The pest or weed control at 100 ppm in assay [7] was in the range of 80 to 100%. Also, the pest or weed control at 121.5 g/ha in assay [6] (setting [13]) and in assay [6] (setting [15]) was under 0% throughout.
For the compound `COc1ccnc(C(=O)N[C@H]2CCC[C@H](Oc3ccccc3)[C@@H](OC(=O)C3CC3)[C@H](C)OC2=O)c1OC(C)=O` [F242], the pest or weed control at 25 ppm was 80 to 100% in assay [1] (setting [8]) and 0 to 80% in assay [1] (setting [9]). In addition, the pest or weed control at 100 ppm in assay [2] is under 0%; in assay [3] it was 0 to 80%; in assay [4], 80 to 100%; in assay [5], 0 to 80%; in assay [6] (setting [12]), 80 to 100%; in assay [6] (setting [14]), 80 to 100%. For the same compound, the pest or weed control at 100 ppm in assay [7] is 80 to 100%. The pest or weed control at 121.5 g/ha in assay [6] (setting [13]) and in assay [6] (setting [15]) was 0 to 80% throughout.
Turning to `C=C(C)CO[C@H]1CCC[C@H](NC(=O)c2nccc(OC)c2OCOC(C)=O)C(=O)O[C@@H](C)[C@@H]1OC` [F250], the results for the pest or weed control at 25 ppm in assay [1] (setting [8]) and in assay [1] (setting [9]) were 0 to 80% and under 0%, respectively. Also, the pest or weed control at 100 ppm was under 0% in assay [2]; 0 to 80% in assay [3]; 80 to 100% in assay [4]; 0 to 80% in assay [5]; 0 to 80% in assay [7]. Moreover, the values for the pest or weed control at 121.5 g/ha in assay [6] (setting [13]) and in assay [6] (setting [15]) were under 0% and 0 to 80%, respectively.
